Assay results reported in PubChem BioAssay (NCI).
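Assay format: 96-well plates, 48-hour exposure. GI50 marks 50% less growth. TGI marks complete inhibition of growth.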

How the values were obtained:
Assay in all cases: NCI-60 cell line screen, 48 h
[1] = tested on: SF-295 CNS
[2] = tested on: BT-549 breast
[3] = tested on: SNB-19 CNS
[4] = tested on: NCI-H460 lung
[5] = tested on: SK-MEL-5 melanoma
[6] = tested on: KM12 colon
[7] = tested on: U251 CNS
[8] = tested on: HL-60(TB) leukemia
[9] = tested on: OVCAR-8 ovarian
[10] = tested on: RPMI-8226 leukemia
[11] = tested on: CAKI-1 renal
[12] = tested on: A498 renal
[13] = tested on: COLO 205 colon
[14] = tested on: UO-31 renal
[15] = tested on: M14 melanoma
[16] = tested on: SNB-75 CNS
[17] = tested on: MDA-MB-231 breast
[18] = tested on: SK-OV-3 ovarian
[19] = tested on: A549 NSCLC
[20] = tested on: OVCAR-5 ovarian
[21] = tested on: NCI-H226 lung
[22] = tested on: SK-MEL-2 melanoma
[23] = tested on: SF-539 CNS
[24] = tested on: NCI-H23 lung
[25] = tested on: SW-620 colon
[26] = tested on: OVCAR-4 ovarian
[27] = tested on: RXF 393 renal
[28] = tested on: MCF7 breast
[29] = tested on: SN12C renal
[30] = tested on: HCT-116 colon
[31] = tested on: UACC-62 melanoma
[32] = tested on: UACC-257 melanoma
[33] = tested on: PC-3 prostate
[34] = tested on: 786-0 renal
[35] = tested on: MDA-MB-435
[36] = tested on: NCI-H522 lung
[37] = tested on: ACHN renal
[38] = tested on: HOP-92 NSCLC
[39] = tested on: HOP-62 NSCLC
[40] = tested on: HT29 colon
[41] = tested on: IGROV1 ovarian
[42] = tested on: OVCAR-3 ovarian
[43] = tested on: NCI/ADR-RES ovarian
[44] = tested on: SK-MEL-28 melanoma
[45] = tested on: DU-145 prostate
[46] = tested on: MOLT-4 leukemia
[47] = tested on: HS 578T breast
[48] = tested on: EKVX NSCLC
[49] = tested on: SR leukemia
[50] = tested on: SF-268 CNS
[51] = tested on: HCT-15 colon
[52] = tested on: K-562 leukemia
[53] = tested on: MALME-3M melanoma
[54] = tested on: T-47D breast
[55] = tested on: TK-10 renal
[56] = tested on: LOX IMVI melanoma
[57] = tested on: CCRF-CEM leukemia
[58] = tested on: HCC-2998 colon

## [Mn+3].[O-][Cl+3]([O-])([O-])O.[O-]c1ccccc1C=NCCN1CC1.[O-]c1ccccc1C=NCCN1CC1
[1]
  GI50: 18.6 µM
  TGI: 58 µM
[2]
  GI50: 19.4 µM
  TGI: 50.8 µM
[3]
  GI50: 44.6 µM
  TGI: > 100 µM
[4]
  GI50: 27 µM
  TGI: > 100 µM
[5]
  GI50: 17.6 µM
  TGI: 80.8 µM
[6]
  GI50: 17 µM
  TGI: 39 µM
[7]
  GI50: 15.7 µM
  TGI: 38.6 µM
[8]
  GI50: 14.7 µM
  TGI: 37 µM
[9]
  GI50: 17.8 µM
  TGI: > 100 µM
[10]
  GI50: 1.36 µM
  TGI: 9.91 µM
[11]
  GI50: 28.8 µM
  TGI: 68.1 µM
[12]
  GI50: > 100 µM
  TGI: > 100 µM
[13]
  GI50: 28.9 µM
  TGI: 97.3 µM
[14]
  GI50: > 100 µM
  TGI: > 100 µM
[15]
  GI50: 26.9 µM
  TGI: > 100 µM
[16]
  GI50: 25.6 µM
  TGI: 70.1 µM
[17]
  GI50: 20.9 µM
  TGI: > 100 µM
[18]
  GI50: 35.2 µM
  TGI: > 100 µM
[19]
  GI50: 38.6 µM
  TGI: > 100 µM
[20]
  GI50: 37.6 µM
  TGI: > 100 µM
[21]
  GI50: 12.3 µM
  TGI: 35.8 µM
[22]
  GI50: 48.5 µM
  TGI: > 100 µM
[23]
  GI50: 30.6 µM
  TGI: > 100 µM
[24]
  GI50: 15.4 µM
  TGI: 52.8 µM
[25]
  GI50: 17.1 µM
  TGI: > 100 µM
[26]
  GI50: 15.4 µM
  TGI: > 100 µM
[27]
  GI50: 63 µM
  TGI: > 100 µM
[28]
  GI50: 26.7 µM
  TGI: > 100 µM
[29]
  GI50: 19.4 µM
  TGI: > 100 µM
[30]
  GI50: 15.1 µM
  TGI: > 100 µM
[31]
  GI50: 16.6 µM
  TGI: 33.6 µM
[32]
  GI50: 18.1 µM
  TGI: 46.2 µM
[33]
  GI50: 19.9 µM
  TGI: > 100 µM
[34]
  GI50: 27.2 µM
  TGI: > 100 µM
[35]
  GI50: 37 µM
  TGI: > 100 µM
[36]
  GI50: 27.8 µM
  TGI: > 100 µM
[37]
  GI50: 23.5 µM
  TGI: 72.9 µM
[38]
  GI50: 94.8 µM
  TGI: > 100 µM
[39]
  GI50: 28.6 µM
  TGI: > 100 µM
[40]
  GI50: 20.2 µM
  TGI: 44.1 µM
[41]
  GI50: 20.9 µM
  TGI: 62.3 µM
[42]
  GI50: 19.6 µM
  TGI: 40.1 µM
[43]
  GI50: 19.3 µM
  TGI: 49.8 µM
[44]
  GI50: 35.8 µM
  TGI: > 100 µM
[45]
  GI50: 22.7 µM
  TGI: > 100 µM
[46]
  GI50: 5.57 µM
  TGI: 25.4 µM
[47]
  GI50: 33.6 µM
  TGI: > 100 µM
[48]
  GI50: 41.3 µM
  TGI: > 100 µM
[49]
  GI50: 18.4 µM
  TGI: 39.4 µM
[50]
  GI50: 15.9 µM
  TGI: > 100 µM
[51]
  GI50: 4.15 µM
  TGI: 18.3 µM
[52]
  GI50: 20.5 µM
  TGI: 42.4 µM
[53]
  GI50: 19.7 µM
  TGI: 39.9 µM
[54]
  GI50: 20.3 µM
  TGI: > 100 µM
[55]
  GI50: 50.7 µM
  TGI: > 100 µM

## COC(=O)[C@@H](C)C[C@H](Cc1ccc(F)cc1)NC(=O)c1csc([C@@H](C[C@H](C(C)C)N(C)C(=O)[C@@H](NC(=O)[C@H]2CCCCN2C)C2CC2)OC(C)=O)n1
[1]
  GI50: 0.585 µM
  TGI: > 25 µM
[2]
  GI50: 0.188 µM
  TGI: 3.72 µM
[3]
  GI50: 0.164 µM
  TGI: > 25 µM
[4]
  GI50: 0.255 µM
  TGI: > 25 µM
[5]
  GI50: 0.0957 µM
  TGI: 1.46 µM
[6]
  GI50: 0.28 µM
  TGI: > 25 µM
[7]
  GI50: 0.293 µM
  TGI: > 25 µM
[8]
  GI50: 0.054 µM
[9]
  GI50: 0.537 µM
  TGI: > 25 µM
[10]
  GI50: 0.104 µM
  TGI: > 25 µM
[12]
  GI50: 0.598 µM
  TGI: 6.87 µM
[56]
  GI50: 0.272 µM
  TGI: > 25 µM
[13]
  GI50: 0.184 µM
  TGI: 1.47 µM
[14]
  GI50: 1.91 µM
  TGI: > 25 µM
[15]
  GI50: 0.157 µM
  TGI: > 5.99 µM
[16]
  GI50: 0.174 µM
  TGI: > 25 µM
[17]
  GI50: 0.315 µM
  TGI: 1.65 µM
[18]
  GI50: 5.39 µM
  TGI: > 25 µM
[19]
  GI50: 0.959 µM
  TGI: > 25 µM
[20]
  GI50: 1.07 µM
  TGI: > 25 µM
[21]
  GI50: 1.26 µM
  TGI: > 13.9 µM
[22]
  GI50: 0.169 µM
  TGI: > 25 µM
[23]
  GI50: 0.408 µM
  TGI: 1.49 µM
[24]
  GI50: 1.14 µM
  TGI: > 25 µM
[25]
  GI50: 0.129 µM
  TGI: > 25 µM
[26]
  GI50: 2.37 µM
  TGI: > 25 µM
[28]
  GI50: 0.0587 µM
  TGI: > 25 µM
[29]
  GI50: 0.357 µM
  TGI: > 25 µM
[30]
  GI50: 0.116 µM
  TGI: > 9.49 µM
[31]
  GI50: 0.137 µM
  TGI: > 25 µM
[32]
  GI50: > 15.5 µM
  TGI: > 25 µM
[57]
  GI50: 0.153 µM
  TGI: > 25 µM
[33]
  GI50: 0.415 µM
  TGI: > 25 µM
[58]
  GI50: 2.48 µM
  TGI: > 25 µM
[34]
  GI50: 0.831 µM
  TGI: > 25 µM
[35]
  GI50: 0.0194 µM
  TGI: 0.109 µM
[36]
  GI50: 0.0577 µM
  TGI: 0.213 µM
[37]
  GI50: 1.98 µM
  TGI: > 25 µM
[38]
  GI50: 0.917 µM
  TGI: > 12.8 µM
[39]
  GI50: 0.559 µM
  TGI: > 25 µM
[40]
  GI50: 0.107 µM
  TGI: > 25 µM
[41]
  GI50: 0.34 µM
  TGI: > 25 µM
[42]
  GI50: 0.0723 µM
  TGI: 0.633 µM
[43]
  GI50: 6.88 µM
  TGI: > 25 µM
[44]
  GI50: 1.05 µM
  TGI: > 25 µM
[45]
  GI50: 0.238 µM
  TGI: > 9.05 µM
[46]
  GI50: 0.338 µM
  TGI: > 25 µM
[47]
  GI50: 0.307 µM
  TGI: > 7.76 µM
[48]
  GI50: 0.88 µM
  TGI: > 25 µM
[49]
  GI50: 0.0282 µM
  TGI: > 25 µM
[50]
  GI50: 1.16 µM
  TGI: > 25 µM
[51]
  GI50: 0.828 µM
  TGI: > 25 µM
[52]
  GI50: 0.0605 µM
  TGI: > 25 µM
[53]
  GI50: 0.569 µM
  TGI: > 25 µM
[54]
  GI50: > 25 µM
  TGI: > 25 µM
[55]
  GI50: > 13.8 µM
  TGI: > 25 µM
